Data set [1] in a line: Stability of the potassium salt solvates (ambient atmosphere / alcoholic medium with excess potassium hydroxide). It is filed as physicochemical.
A short description of data set [2]: Solubility measurements. It counts as physicochemical. As to the method: The solubility measurements are calculated, for a given temperature and for a given excess of potassium hydroxide, in the following way: [formula]
[3] abbreviates: in an ethanol-water mixture in which ethanol predominates, with an excess of potassium hydroxide.
The mark [4] stands for this setting: excess of potassium hydroxide in alcohol/alcohol or alcohol/water solvent mixtures or pure alcohol.

Counter-ions that a name gives are not always drawn.

Regarding `COc1ccc2[nH]c([S+]([O-])Cc3ncc(C)c(OC)c3C)nc2c1` (racemic) [ethanol solvates of the potassium salt of racemic omeprazole], the Stability entry in data set [1] (setting [3]) is “stable”.

Take `COc1ccc2[nH]c([S+]([O-])Cc3ncc(C)c(OC)c3C)nc2c1` (racemic) [racemic mixture]: the Solubility in data set [2] (absolute ethanol, 1.2 molar equivalents of potassium hydroxide, 26 °C) is given as 1.3 % by weight; in data set [2] (absolute ethanol, 1.2 molar equivalents of potassium hydroxide, 30 °C), 1.7 % by weight; in data set [2] (absolute ethanol, 1.2 molar equivalents of potassium hydroxide, 33 °C), 2.2 % by weight; in data set [2] (ethanol/water (90/10% weight/weight), 1.2 molar equivalents of potassium hydroxide, 30 °C), 25 % by weight; in data set [2] (ethanol/water azeotropic mixture, 1.2 molar equivalents of potassium hydroxide, 29 °C), 8.7 % by weight; in data set [2] (ethanol/water azeotropic mixture, 1.2 molar equivalents of potassium hydroxide, 31 °C), 9.1 % by weight. Besides, the Solubility in data set [2] (ethanol/water azeotropic mixture, 1.2 molar equivalents of potassium hydroxide, 35 °C) worked out at 13.7 % by weight. Moreover, in data set [2] (ethanol/water (93/7% weight/weight), 1.2 molar equivalents of potassium hydroxide, 34.4 °C), the “Solubility (coordinates of the point L)” value is 20 % by weight. Besides, the “Solubility of the salt (in words)” value in data set [2] (in ethanol (Example 7)) is recorded as “low”. Further, the Stability entry in data set [1] (setting [4]) is “stable”.

With `COc1ccc2nc([S@@+]([O-])Cc3ncc(C)c(OC)c3C)[nH]c2c1` [(S)-omeprazole, 5-methoxy-2-[(S)-[(4-methoxy-3,5-dimethyl-2-pyridinyl)methyl]sulphinyl]-1H-benzimidazole], the Stability result in data set [1] (setting [3]) is recorded as “stable”.

For the molecule `COc1ccc2nc([S@@+]([O-])Cc3ncc(C)c(OC)c3C)[nH]c2c1` [pure enantiomer (S)-omeprazole, 5-methoxy-2-[(S)-[(4-methoxy-3,5-dimethyl-2-pyridinyl)methyl]sulphinyl]-1H-benzimidazole], the Stability result in data set [1] (setting [4]) was “stable”.

These data come from patent US8034948B2, “Method for resolving omeprazole salts” (Universite de Rouen, priority 2007, dated 2011).
